Laboratory results reported in the NIST ThermoML archive (doi:10.1021/je049950g).

Conditions: Liquid

CC(=O)N(C)C [N,N-dimethylethanamide]
Conditions	vapor or sublimation pressure [kPa]
298.15 K	0.2936
303.15 K	0.3925
308.15 K	0.5179
313.15 K	0.6782
318.15 K	0.8946
323.15 K	1.163
328.15 K	1.526
333.15 K	1.983
338.15 K	2.556
343.15 K	3.27
348.15 K	4.135
353.15 K	5.192
363.15 K	7.995
368.15 K	9.806
373.15 K	11.98
378.15 K	14.52
383.15 K	17.5
388.15 K	21.01
393.15 K	25.03
398.15 K	29.69
403.15 K	35.02
408.15 K	41.11
413.15 K	48.06
418.15 K	55.91
423.15 K	64.78

CC1COC(=O)O1 (stereo not given) [4-methyl-1,3-dioxolan-2-one]
Conditions	vapor or sublimation pressure [kPa]
348.15 K	0.2509
353.15 K	0.3277
358.15 K	0.4377
363.15 K	0.5553
368.15 K	0.7206
373.15 K	0.9231
378.15 K	1.167
388.15 K	1.856
393.15 K	2.284
398.15 K	2.826
403.15 K	3.482
408.15 K	4.265
413.15 K	5.153
418.15 K	6.226
423.15 K	7.454
428.15 K	8.959
433.15 K	10.78
438.15 K	12.69
443.15 K	14.81
448.15 K	17.81
453.15 K	20.5
458.15 K	24.08
463.15 K	27.96
468.15 K	33.01
473.15 K	37.77
